Among the test systems are A498; A549; EKVX; HCT-116; HOP-18; HT-29; K562; KM-20L2; MCF7; Malme-3M; NCI-H226; NCI-H23; SF-295; SF-539; SK-MEL-2; SK-OV-3; SN12C; SNB-75; SNB-78; U-251.
Holding throughout (test): growth of human tumour cells (NCI), 48 h

Structures are written as SMILES.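 Briefly, cells in 96-well plates were exposed to five compound concentrations for 48 h, and endpoints were estimated by linear interpolation. GI50 marks 50% less growth.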 Activity calls are given as the source filed them. No stated cut-off is given here; in the data, active = GI50 up to about 1.1 µM and inactive = higher. Bounds are passed on as bounds.

In the case of `CC1C(=O)C(C)C(c2ccccc2)N(N=O)C1c1ccccc1` (stereo not given), the GI50 was 247 µM (inactive) with A498; 207 µM (inactive) in the assay on A549; > 100 µM (inactive) with EKVX; 127 µM (inactive) with HCT-116; > 100 µM (inactive) in the assay on HOP-18; > 570 µM (inactive) in the assay on HT-29. Besides, the GI50 in the assay on K562 was > 883 µM (inactive); in the assay with KM-20L2, > 1000 µM (inactive); in the assay on MCF7 it was > 100 µM (inactive); in the assay on Malme-3M, > 318 µM (inactive); in the assay with NCI-H226 it was > 69.5 µM (inactive); in the assay on NCI-H23 it was > 69 µM (inactive). For the same molecule, the GI50 with SF-295 was 48.8 µM (inactive); in the assay on SF-539, 86.5 µM (inactive); in the assay with SK-MEL-2, 224 µM (inactive); in the assay with SK-OV-3 it was 37.2 µM (inactive); in the assay with SN12C, 400 µM (inactive); in the assay with SNB-75 it was 34 µM (inactive). Moreover, the GI50 was > 47 µM (inactive) with SNB-78 and 60.1 µM (inactive) in the assay with U-251.
Turning to `CCc1cccc(CC)c1NC(=S)NC(=O)c1ccc(Br)cc1`, the GI50 in the assay with A498 is 33.6 µM (inactive); in the assay with A549 it was 32.8 µM (inactive); in the assay on EKVX, 23.6 µM (inactive); in the assay with HCT-116 it was 28.8 µM (inactive); in the assay with HOP-18 it was 49.9 µM (inactive); in the assay with HT-29, 36.9 µM (inactive). The GI50 was 40.7 µM (inactive) in the assay with K562; 47.5 µM (inactive) in the assay on KM-20L2; 20.6 µM (inactive) in the assay with MCF7; 18.4 µM (inactive) with Malme-3M; 21.5 µM (inactive) with NCI-H226; 29.6 µM (inactive) in the assay on NCI-H23. In addition, the GI50 in the assay with SF-295 was > 53 µM (inactive); with SF-539, 33.1 µM (inactive); in the assay on SK-MEL-2, 18.6 µM (inactive); in the assay with SK-OV-3, 64.9 µM (inactive); with SN12C it was 32.6 µM (inactive); in the assay with SNB-75, 26.4 µM (inactive). The GI50 in the assay on SNB-78 is 64.7 µM (inactive); in the assay with U-251 it was 40.1 µM (inactive).
For `COc1c(C=O)c2c(c(OC)c1OC)-c1ccc(OC)c(=O)cc1[C@@H](NC(C)=O)CC2`, the GI50 in the assay with A498 is 0.347 µM (active); in the assay on A549, 0.437 µM (active); with EKVX, 47.9 µM (inactive); in the assay with HCT-116 it was 0.0174 µM (active); with HOP-18, 21.6 µM (inactive); in the assay with HT-29, 0.0255 µM (active). The GI50 in the assay on K562 was < 0.0126 µM (active); in the assay on KM-20L2 it was 0.0364 µM (active); with MCF7, < 0.01 µM (active); with Malme-3M, 0.164 µM (active); in the assay on NCI-H226 it was 0.583 µM (active); in the assay with NCI-H23, 0.034 µM (active). For the same molecule, the GI50 with SF-295 was 0.185 µM (active); with SF-539, 0.0237 µM (active); with SK-MEL-2, 0.0313 µM (active); in the assay on SK-OV-3, 1.2 µM (inactive); in the assay with SN12C it was 0.0824 µM (active); in the assay with SNB-75, 0.0254 µM (active). The GI50 with SNB-78 is < 0.0147 µM (active); in the assay with U-251 it was 0.0367 µM (active).

These data come from ChEMBL document CHEMBL1201862, “PubChem BioAssay data set” (2004).
